Among the test systems are SF-539; SW-620; PC-3; BT-549; 786-0; NCI-H460; M14; OVCAR-3; Hs-578T; OVCAR-8; SF-268; T47D; NCI-H522; HCT-116; EKVX; RXF 393; SN12C; SR; TK-10; HCC 2998.
Common to all, as to experiment: NCI anticancer screen, dose series, 48 h

We go through 10 molecules from ChEMBL document CHEMBL1201862, “PubChem BioAssay data set” (2004).

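Compound exposure: 48 hours, 5 concentrations, 96-well plates. The concentration for 50% growth inhibition is given as GI50.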 Calls of active or inactive are those of the source. No stated cut-off is given here; in the data, active = GI50 up to about 1.1 µM and inactive = higher.

Regarding `COC(=O)[C@@H]1c2c(oc3cc(CO)cc(O)c3c2=O)C=C[C@H]1O`, the GI50 with SF-539 was 2.67 µM (inactive); in the assay with SW-620, 3.11 µM (inactive); in the assay with PC-3 it was 7.18 µM (inactive); in the assay on BT-549 it was 2.94 µM (inactive); in the assay on 786-0 it was 2.45 µM (inactive); in the assay with NCI-H460, 18.6 µM (inactive). The GI50 in the assay with M14 is 5.97 µM (inactive); in the assay on OVCAR-3, 8.02 µM (inactive); with Hs-578T, 24.7 µM (inactive); in the assay with OVCAR-8, 5.56 µM (inactive); in the assay with SF-268 it was 6.19 µM (inactive); in the assay with T47D, 2.7 µM (inactive). In addition, the GI50 is 1.84 µM (inactive) in the assay on NCI-H522; 2.3 µM (inactive) in the assay on HCT-116; 13.3 µM (inactive) in the assay on EKVX; 2.8 µM (inactive) in the assay on RXF 393; 9.86 µM (inactive) with SN12C; 5.6 µM (inactive) in the assay with SR. The GI50 with TK-10 was 2.34 µM (inactive).
On to `CC(=O)C1=C(C)O[C@@H]2O[C@H](COCc3ccccc3)[C@@H](OCc3ccccc3)[C@H](O)[C@@H]2S1`, for which the GI50 in the assay on SF-539 was 20 µM (inactive); with SW-620, 26.7 µM (inactive); in the assay on PC-3, 26.2 µM (inactive); with BT-549, 21.8 µM (inactive); in the assay with 786-0, 25.1 µM (inactive); with NCI-H460, 17.5 µM (inactive). Moreover, the GI50 is 20.4 µM (inactive) in the assay with M14; 15.2 µM (inactive) in the assay on OVCAR-3; 17.9 µM (inactive) in the assay on Hs-578T; 23 µM (inactive) in the assay on OVCAR-8; 15.2 µM (inactive) in the assay on SF-268; 5.9 µM (inactive) with T47D. Also, the GI50 in the assay with NCI-H522 is 15 µM (inactive); with HCT-116, 16.4 µM (inactive); in the assay with EKVX, 25.1 µM (inactive); with RXF 393 it was 13.8 µM (inactive); with SN12C, 19.2 µM (inactive); in the assay on SR, 22 µM (inactive). Further, the GI50 with TK-10 was 19.1 µM (inactive).
As for `CCCC(=O)NC(C(=O)OCC)(N1CCOCC1)C(F)(F)F` (stereo not drawn), the GI50 with SF-539, in the assay with SW-620, in the assay on PC-3, with BT-549, in the assay on 786-0 and in the assay with M14 was > 100 µM (inactive) each time. Moreover, the GI50 with OVCAR-3, in the assay with Hs-578T, in the assay on OVCAR-8, in the assay with HCC 2998, with SF-268 and with T47D was > 100 µM (inactive) throughout. Also, the GI50 in the assay with NCI-H522, in the assay on HCT-116, in the assay on EKVX, in the assay with RXF 393, in the assay with SN12C and with SR was > 100 µM (inactive) in each case. The GI50 in the assay with TK-10 was > 100 µM (inactive).
For the molecule `CC(=O)N1c2ccccc2C23CCN(C)CC4C(C)OCC(C4CC2=O)C13` (stereo not drawn), the GI50 in the assay with SF-539, in the assay with SW-620, with PC-3, with BT-549, with 786-0 and in the assay on NCI-H460 was > 100 µM (inactive) in each case. Besides, the GI50 with M14, in the assay on Hs-578T, in the assay with OVCAR-8, with HCC 2998, in the assay with SF-268 and with T47D was > 100 µM (inactive) throughout. Further, the GI50 in the assay on NCI-H522, in the assay on HCT-116, with EKVX, in the assay on RXF 393, in the assay with SN12C and in the assay with SR was > 100 µM (inactive) throughout. In the assay with TK-10, the GI50 is > 100 µM (inactive).
In the case of `CC(=O)O[C@H]1C[C@H]2[C@@H](OC(C)=O)/C=C3\C[C@](C)(C(=O)[C@H](O)C(=C1C)C2(C)C)[C@@H](O)C[C@@H]3OC(=O)[C@H](O)[C@H](c1ccccc1)N(C)C`, the GI50 in the assay with SF-539, with SW-620, in the assay on PC-3, with BT-549, in the assay on 786-0 and with NCI-H460 was > 100 µM (inactive) throughout. In addition, the GI50 in the assay on M14, in the assay on OVCAR-3, in the assay on Hs-578T, in the assay with OVCAR-8, with SF-268 and in the assay with T47D was > 100 µM (inactive) throughout. Further, the GI50 in the assay on NCI-H522, in the assay on HCT-116, with EKVX, in the assay with RXF 393, in the assay with SN12C and with SR was > 100 µM (inactive) throughout. The GI50 in the assay with TK-10 was > 100 µM (inactive).
For the molecule `Clc1ccc(-c2ccc(-c3nn4c(CNc5ccccc5)nnc4s3)o2)c(Cl)c1`, the GI50 in the assay with SF-539 is 22.5 µM (inactive); in the assay on SW-620, > 100 µM (inactive); with PC-3, 54.2 µM (inactive); in the assay with BT-549, > 100 µM (inactive); in the assay with 786-0, > 100 µM (inactive); with NCI-H460, 85.9 µM (inactive). Further, the GI50 in the assay with M14 was 93.3 µM (inactive); in the assay on OVCAR-3, 45.2 µM (inactive); with Hs-578T, > 100 µM (inactive); in the assay with OVCAR-8 it was 68.7 µM (inactive); in the assay with SF-268, > 100 µM (inactive); with T47D, 13.5 µM (inactive). The GI50 with NCI-H522 is 57.8 µM (inactive); in the assay on HCT-116, 43.6 µM (inactive); in the assay on EKVX it was 41.5 µM (inactive); in the assay with RXF 393, 33.5 µM (inactive); with SN12C, > 100 µM (inactive); in the assay on SR it was 27.5 µM (inactive). The GI50 in the assay on TK-10 is > 100 µM (inactive).
`COc1ccc(/C=C(/C#N)C(N)=O)cc1OC`: the GI50 in the assay with SF-539, in the assay with SW-620, with PC-3, in the assay on BT-549, with 786-0 and in the assay with NCI-H460 was > 100 µM (inactive) in each case. Besides, the GI50 in the assay with M14, in the assay on OVCAR-3, with Hs-578T, in the assay on OVCAR-8, in the assay with SF-268 and with T47D was > 100 µM (inactive) each time. Moreover, the GI50 in the assay on NCI-H522, with HCT-116, in the assay on EKVX, in the assay with RXF 393, in the assay with SN12C and in the assay with SR was > 100 µM (inactive) each time. Moreover, in the assay on TK-10, the GI50 is > 100 µM (inactive).
For `FC(F)(F)c1ccccc1C1SCC2=Nc3ccccc3CN21` (stereo not drawn), the GI50 in the assay with SF-539 is 10.8 µM (inactive); in the assay with SW-620, 32.4 µM (inactive); in the assay on PC-3, 14.1 µM (inactive); in the assay with BT-549, 19.3 µM (inactive); in the assay on 786-0 it was 11.9 µM (inactive); in the assay on NCI-H460, 15.7 µM (inactive). In addition, the GI50 with M14 was 12.2 µM (inactive); in the assay on Hs-578T, 12.3 µM (inactive); in the assay with OVCAR-8, 16.9 µM (inactive); in the assay with HCC 2998, 14.5 µM (inactive); with SF-268 it was 15.1 µM (inactive); in the assay on T47D, 16.8 µM (inactive). Further, the GI50 with HCT-116 was 11.1 µM (inactive); in the assay with EKVX, 12 µM (inactive); in the assay with RXF 393, 10.2 µM (inactive); with SN12C it was 27 µM (inactive); with SR it was 21.2 µM (inactive); with TK-10, 14.4 µM (inactive).
Regarding `OCC12C3C4C5C3C1C5C42` (stereo not drawn), the GI50 in the assay with SF-539, in the assay with SW-620, in the assay with PC-3, in the assay on BT-549, with 786-0 and in the assay with NCI-H460 was > 100 µM (inactive) in each case. Moreover, the GI50 in the assay with M14, with OVCAR-3, in the assay with Hs-578T, in the assay on OVCAR-8, in the assay on SF-268 and in the assay with T47D was > 100 µM (inactive) throughout. In addition, the GI50 in the assay on NCI-H522, in the assay on HCT-116, in the assay on EKVX, with RXF 393, in the assay with SN12C and in the assay on SR was > 100 µM (inactive) each time. The GI50 in the assay on TK-10 is > 100 µM (inactive).
Turning to `c1ccc(C(=NNc2nc3ccccc3o2)c2ccccn2)nc1`, the GI50 with SF-539 was 0.0931 µM (active); in the assay on SW-620, 0.024 µM (active); with PC-3, < 0.0191 µM (active); with BT-549 it was 0.0908 µM (active); in the assay with 786-0, < 0.0254 µM (active); with M14, 0.0281 µM (active). For the same molecule, the GI50 in the assay with Hs-578T is 0.447 µM (active); in the assay on OVCAR-8 it was 0.0301 µM (active); in the assay on HCC 2998, 0.0391 µM (active); in the assay on SF-268, 0.0841 µM (active); in the assay with T47D, < 0.01 µM (active); in the assay on NCI-H522 it was 0.0776 µM (active). For the same molecule, the GI50 was < 0.0117 µM (active) in the assay with HCT-116; < 0.0162 µM (active) with EKVX; 0.158 µM (active) with RXF 393; 0.118 µM (active) with SN12C; 0.0388 µM (active) with SR; 0.0574 µM (active) in the assay with TK-10.
